Data: PubChem BioAssay AID248 (DTP/NCI, 2004)
Inconclusive results and toxic doses are left out. Rule as the data show it: active = T/C of 150% or more; inactive = T/C below 125%.

Test system: L1210 leukemia ip in BDF1 mice, survival T/C
Assay: NCI In Vivo Anticancer Drug Screen. Data for tumor model L1210 Leukemia (intraperitoneal) in B6D2F1 (BDF1) mice
Details: endpoint: mean survival time, higher = longer survival
Summary of the method: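 Each compound was tested against a transplantable tumor grown in mice. The endpoint was survival, with treated animals benchmarked against vehicle controls as a simple ratio.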

[1] = dose: 100.0 mg/kg/injection, schedule: Q04DX003 (ip), vehicle: Klucel (hydroxypropylcellulose) (HPC)
[2] = dose: 200.0 mg/kg/injection, schedule: Q04DX003 (ip), vehicle: Klucel (hydroxypropylcellulose) (HPC)
[3] = dose: 100.0 mg/kg/injection, schedule: Q01DX009 (ip), vehicle: saline with Tween-80
[4] = dose: 200.0 mg/kg/injection, schedule: Q01DX009 (ip), vehicle: saline with Tween-80
[5] = dose: 100.0 mg/kg/injection, schedule: Q01DX009 (ip), vehicle: other
[6] = dose: 100.0 mg/kg/injection, schedule: Q01DX009 (ip), vehicle: Klucel (hydroxypropylcellulose) (HPC)
[7] = dose: 200.0 mg/kg/injection, schedule: Q01DX009 (ip), vehicle: Klucel (hydroxypropylcellulose) (HPC)
[8] = dose: 400.0 mg/kg/injection, schedule: Q01DX009 (ip), vehicle: Klucel (hydroxypropylcellulose) (HPC)
[9] = dose: 400.0 mg/kg/injection, schedule: Q04DX003 (ip), vehicle: Klucel (hydroxypropylcellulose) (HPC)

Measured: T/C

CCCN(CCC)S(=O)(=O)CCC
inactive: dose: 50.0 mg/kg/injection, schedule: Q04DX002 (ip), vehicle: saline with Tween-80 97 % of control | dose: 100.0 mg/kg/injection, schedule: Q04DX002 (ip), vehicle: saline with Tween-80 97 % of control | dose: 200.0 mg/kg/injection, schedule: Q04DX002 (ip), vehicle: saline with Tween-80 101 % of control

O=C(O)C(c1ccccc1)P(=S)(c1ccccc1)c1ccccc1 (stereo not given)
inactive: dose: 75.0 mg/kg/injection, schedule: Q01DX001 (ip), vehicle: other 89 % of control | dose: 150.0 mg/kg/injection, schedule: Q01DX001 (ip), vehicle: other 111 % of control

CN(C)Cc1cc(C(F)(F)F)ccc1C(O)(c1ccccc1)c1ccccc1
inactive: dose: 50.0 mg/kg/injection, schedule: Q01DX001 (ip), vehicle: carboxymethylcellulose (CMC) 110 % of control | dose: 100.0 mg/kg/injection, schedule: Q01DX001 (ip), vehicle: carboxymethylcellulose (CMC) 101 % of control | dose: 200.0 mg/kg/injection, schedule: Q01DX001 (ip), vehicle: carboxymethylcellulose (CMC) 101 % of control | dose: 400.0 mg/kg/injection, schedule: Q01DX001 (ip), vehicle: carboxymethylcellulose (CMC) 98 % of control

CCCCSC1=CC(=O)c2ccccc2C1=O
inactive: dose: 12.5 mg/kg/injection, schedule: Q04DX003 (ip), vehicle: Klucel (hydroxypropylcellulose) (HPC) 104 % of control

CN1CCCCC1C[CH2][Sn]([c]1ccccc1)([c]1ccccc1)[c]1ccccc1 (stereo not given)
inactive: dose: 3.12 mg/kg/injection, schedule: Q01DX009 (ip), vehicle: Klucel (hydroxypropylcellulose) (HPC) 90 % of control | dose: 6.25 mg/kg/injection, schedule: Q01DX009 (ip), vehicle: Klucel (hydroxypropylcellulose) (HPC) 90 % of control | dose: 12.5 mg/kg/injection, schedule: Q01DX009 (ip), vehicle: Klucel (hydroxypropylcellulose) (HPC) 92 % of control | dose: 12.5 mg/kg/injection, schedule: Q04DX002 (ip), vehicle: Klucel (hydroxypropylcellulose) (HPC) 93 % of control | dose: 25.0 mg/kg/injection, schedule: Q04DX002 (ip), vehicle: Klucel (hydroxypropylcellulose) (HPC) 96 % of control

O=C(O)CCC(=O)O.[Ag]
inactive: dose: 12.5 mg/kg/injection, schedule: Q04DX003 (ip), vehicle: saline with Tween-80 93 % of control | dose: 25.0 mg/kg/injection, schedule: Q01DX009 (ip), vehicle: acetone 86 % of control | dose: 25.0 mg/kg/injection, schedule: Q04DX003 (ip), vehicle: saline with Tween-80 95 % of control

NC(=S)N/N=C1/c2ccccc2-c2cc(Br)ccc21
inactive: dose: 50.0 mg/kg/injection, schedule: Q04DX003 (ip), vehicle: Klucel (hydroxypropylcellulose) (HPC) 106 % of control | [1] 97 % of control | [2] 100 % of control

CC(=O)Oc1ccc(Cl)cc1
inactive: [3] 97 % of control | dose: 100.0 mg/kg/injection, schedule: Q04DX003 (ip), vehicle: saline with Tween-80 108 % of control | [4] 103 % of control | dose: 200.0 mg/kg/injection, schedule: Q04DX003 (ip), vehicle: saline with Tween-80 97 % of control | dose: 400.0 mg/kg/injection, schedule: Q04DX003 (ip), vehicle: saline with Tween-80 105 % of control

NCCCCNc1ncnc2c1ncn2C1OC(CO)C(O)C1O (stereo not given)
inactive: dose: 100.0 mg/kg/injection, schedule: Q01DX005 (ip), vehicle: saline 104 % of control | dose: 200.0 mg/kg/injection, schedule: Q01DX005 (ip), vehicle: saline 116 % of control

COc1ccc(CC2=[N+](C)CCc3cc(OC)c(OC)cc32)cc1OC
inactive: dose: 25.0 mg/kg/injection, schedule: Q01DX009 (ip), vehicle: other 101 % of control | dose: 50.0 mg/kg/injection, schedule: Q01DX009 (ip), vehicle: other 104 % of control | dose: 100.0 mg/kg/injection, schedule: Q01DX001 (ip), vehicle: other 106 % of control | [5] 106 % of control | dose: 400.0 mg/kg/injection, schedule: Q01DX001 (ip), vehicle: other 106 % of control

Cc1ccc(NC(=O)CCC(=O)O)cc1Cl
inactive: [6] 102 % of control | [7] 92 % of control | [8] 89 % of control

Clc1ccc(/C=C/c2ccc(Cl)cc2)cc1
inactive: dose: 75.0 mg/kg/injection, schedule: Q04DX003 (ip), vehicle: Klucel (hydroxypropylcellulose) (HPC) 95 % of control | dose: 150.0 mg/kg/injection, schedule: Q04DX003 (ip), vehicle: Klucel (hydroxypropylcellulose) (HPC) 95 % of control | dose: 300.0 mg/kg/injection, schedule: Q04DX003 (ip), vehicle: Klucel (hydroxypropylcellulose) (HPC) 98 % of control

O=c1c2ccccc2nc2sc3ccccc3n12
inactive: [5] 93 % of control | dose: 200.0 mg/kg/injection, schedule: Q01DX009 (ip), vehicle: other 107 % of control | dose: 400.0 mg/kg/injection, schedule: Q01DX009 (ip), vehicle: other 103 % of control

F[Si](C1CCCCC1)(C1CCCCC1)C1CCCCC1
inactive: [3] 92 % of control | [4] 91 % of control | dose: 400.0 mg/kg/injection, schedule: Q01DX009 (ip), vehicle: saline with Tween-80 89 % of control

Cc1coc2ccccc2c1=O
inactive: dose: 50.0 mg/kg/injection, schedule: Q04DX002 (ip), vehicle: gum acacia 114 % of control | dose: 100.0 mg/kg/injection, schedule: Q04DX002 (ip), vehicle: gum acacia 117 % of control | dose: 200.0 mg/kg/injection, schedule: Q04DX002 (ip), vehicle: gum acacia 107 % of control

O=C1c2ccccc2C(=O)N1c1ccc(Br)cc1
inactive: dose: 100.0 mg/kg/injection, schedule: Q01DX001 (ip), vehicle: Klucel (hydroxypropylcellulose) (HPC) 101 % of control | dose: 200.0 mg/kg/injection, schedule: Q01DX001 (ip), vehicle: Klucel (hydroxypropylcellulose) (HPC) 104 % of control | dose: 400.0 mg/kg/injection, schedule: Q01DX001 (ip), vehicle: Klucel (hydroxypropylcellulose) (HPC) 104 % of control

O=C1c2ccccc2C(=O)N1CNc1ccccc1
inactive: [6] 103 % of control | [1] 104 % of control | [7] 98 % of control | [2] 102 % of control | [8] 93 % of control | [9] 94 % of control

CCCCCCCCCN1CCCC(OC(=O)N(C)C)C1 (stereo not given)
inactive: dose: 25.0 mg/kg/injection, schedule: Q04DX002 (ip), vehicle: saline 103 % of control | dose: 50.0 mg/kg/injection, schedule: Q04DX002 (ip), vehicle: saline 103 % of control | dose: 100.0 mg/kg/injection, schedule: Q04DX002 (ip), vehicle: saline 100 % of control

COc1ccc2c(c1)CCCC2CC(=O)c1ccccc1 (stereo not given)
inactive: dose: 50.0 mg/kg/injection, schedule: Q01DX009 (ip), vehicle: acetone 98 % of control | dose: 100.0 mg/kg/injection, schedule: Q01DX009 (ip), vehicle: acetone 95 % of control | dose: 100.0 mg/kg/injection, schedule: Q04DX003 (ip), vehicle: acetone 86 % of control | dose: 198.0 mg/kg/injection, schedule: Q01DX009 (ip), vehicle: other 107 % of control | dose: 200.0 mg/kg/injection, schedule: Q01DX009 (ip), vehicle: acetone 98 % of control | dose: 200.0 mg/kg/injection, schedule: Q04DX003 (ip), vehicle: acetone 87 % of control | dose: 300.0 mg/kg/injection, schedule: Q01DX009 (ip), vehicle: other 104 % of control

CN1C(=O)OC(C)(C)C1=O
inactive: dose: 25.0 mg/kg/injection, schedule: Q01DX009 (ip), vehicle: saline 98 % of control | dose: 25.0 mg/kg/injection, schedule: Q04DX003 (ip), vehicle: saline 93 % of control | dose: 50.0 mg/kg/injection, schedule: Q01DX009 (ip), vehicle: saline 95 % of control | dose: 50.0 mg/kg/injection, schedule: Q04DX003 (ip), vehicle: saline 109 % of control | dose: 100.0 mg/kg/injection, schedule: Q01DX009 (ip), vehicle: saline 102 % of control | dose: 100.0 mg/kg/injection, schedule: Q04DX003 (ip), vehicle: saline 98 % of control | dose: 200.0 mg/kg/injection, schedule: Q01DX009 (ip), vehicle: saline 96 % of control | dose: 200.0 mg/kg/injection, schedule: Q04DX003 (ip), vehicle: saline 109 % of control | dose: 400.0 mg/kg/injection, schedule: Q01DX009 (ip), vehicle: saline 106 % of control | dose: 400.0 mg/kg/injection, schedule: Q04DX003 (ip), vehicle: saline 98 % of control

CON(C)S(=O)c1ccc([N+](=O)[O-])cc1 (stereo not given)
inactive: [1] 100 % of control | [2] 97 % of control | [9] 94 % of control
